Source: US9249116B2, “Enzyme-activating compounds and compositions” (The Board of Trustees of the University of Illinois, priority 2012, dated 2016)
Blank lines part the entries; values can stand above or below the compound they belong to.

What was measured:
procaspase-3 = molecular target: T1, procaspase-3 (Homo sapiens, UniProt P42574); assay: Procaspase-3 activity assay (relief of zinc-mediated inhibition, Ac-DEVD-pNA cleavage); format: biochemical; settings: procaspase-3 incubated with […] ZnSO4; method gives compounds at 25 μM
T1 construct: 6xHis (C); made in house; host or cells: Rosetta E. coli
T1 sequence (P42574 1-277): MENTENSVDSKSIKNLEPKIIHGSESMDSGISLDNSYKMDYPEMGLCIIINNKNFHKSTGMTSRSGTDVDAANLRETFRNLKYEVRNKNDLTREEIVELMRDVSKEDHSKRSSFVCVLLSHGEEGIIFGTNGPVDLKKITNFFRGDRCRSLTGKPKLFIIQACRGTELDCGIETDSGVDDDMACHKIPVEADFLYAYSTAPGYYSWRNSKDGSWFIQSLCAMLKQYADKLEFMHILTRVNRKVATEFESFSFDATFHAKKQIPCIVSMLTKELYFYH
Description: The six confirmed hits were then evaluated in vitro for their ability to relieve zinc-mediated inhibition of procaspase-3 (Table A). In this experiment, procaspase-3 was incubated with ZnSO4, conditions in which procaspase-3 has no enzymatic activity.
Techniques adapted from Hergenrother and coworkers (Putt et al., Nat Chem Biol 2006, 2, 543-550). A 20 mL volume of an overnight culture of Rosetta E. coli containing the procaspase-3 (wild-type) expression plasmid was seeded into 2 L of LB media containing ampicillin. The culture was grown to an OD600=1.0, at which point protein expression was induced via addition of IPTG (to 1 mM); the culture was allowed to grow for 30 additional minutes. Cells were then harvested (10 minute spins at 10,000×g and re-suspended in NTA binding buffer (300 mM NaCl, 50 mM Tris, 10 mM imidazole, pH 8.0). The cells were lysed on ice via sonication. The cell lysate was then spun at 35,000×g for […] The supernatant was decanted and 1 mL of nickel-NTA resin was added. The cell lysate was incubated for 45 minutes at 4° C. The resin was loaded on a column, washed with 10 mL NTA binding buffer followed by 10 mL NTA wash buffer (300 mM NaCl, 50 mM Tris, 50 mM imidazole, pH 8.0). The proteins were eluted in 0.5 mL fractions with 10 mL of NTA elution buffer (300 mM NaCl, 50 mM Tris, 500 mM imidazole, pH 8.0). Fractions containing protein were pooled and further purified to remove any contaminating zinc by applying the protein to a PD-10 column (GE Healthcare) charged with Caspase Activity Buffer that had been treated with Chelex® resin. The resulting concentration was determined using the Edelhoch method and the molar absorptivity of procaspase-3 of 26150 M^−1 cm^−1. Protein stocks were flash-frozen in liquid nitrogen and stored at −80° C.
In a 384-well plate recombinantly expressed, zinc-free procaspase-3 (wild type, at 1 μM) in Caspase Activity Buffer (50 mM HEPES, 300 mM NaCl, 1.5 mM TCEP, 0.01% TritonX-100) was incubated at 37° C. in the presence of 3.5 μM ZnSO4 and the basal activity was assessed via the addition of Ac-DEVD-pNA (final concentration in well of 200 μM). The absorbance at 405 nm was monitored with a SpectraMax plate reader (Molecular Devices). […] Activity of each treatment was assessed at 5, 20, 40 and 60 minutes via 5-minute kinetic reads. The slope of each data set was used to determine the activity of the protein. Activity was normalized to a percent activity at each time point using a zinc-free sample and a zinc-inhibited sample treated with DMSO.

[1] = system: U-937 cells (human lymphoma); assay: 72 Hour IC50 cell death assay (sulforhodamine B); format: cell-based; settings: read-out: U-937 72 h IC50 (μM), Table 1, U-937 cells, 72 h
Description: After the synthesis was complete, the biological activity of the compounds was evaluated.
U-937 human lymphoma cells were plated into the wells of 96 well plate at a density of 15,000 cells per well in 99 μL of RPMI 1640 growth media with 10% FBS and 1% pen-strep. To each well was added 1 μL of compound stock solutions in DMSO at varying concentrations such that the cells were treated with concentrations between 0 μM and 100 μM compound. Each concentration was tested in quintuplicate per plate. In each plate 5 wells received 20 μM doxorubicin as a positive death control and 5 wells received 1 μL of DMSO as a negative control.
After the 72 hour incubation period, the plates were analyzed using a Sulforhodamine B assay (Vichai and Kirtikara, Nat Protoc 2006, 1, 1112-1116). Specifically, to each well of the plate 25 μL of a 50% (w/v) solution of trichloroacetic acid in H2O was added and the plates were incubated for 4 hours at 4° C. The plates were then washed gently with water five times. The plates were allowed to air dry after which 100 μL of a 0.057% (w/v) Sulforhodamine B in a 1% (v/v) acetic acid solution was added to each well for 30 minutes at room temperature. The plates were gently washed 5 times with 1% (v/v) acetic acid and air dried. 200 μL of 10 mM Tris base (pH 10.4) was added to each well and the plates were placed on an orbital shaker for thirty minutes. The level of SRB was quantified fluorometrically at excitation and emission wavelengths 488 and 585 nm, respectively, on a Molecular Devices plate reader and the percent cell death calculated and normalized to the positive control (100% cell death) and the negative control (0% cell death). The percent cell death was averaged for each compound concentration and plotted as a function of compound concentration. The data were fit to a logistical dose response curve using Table curve 2D and the IC50 value was calculated. The experiment was repeated three times and the average of the calculated IC50 values was reported. The standard error of the mean (SEM) was determined and reported for the triplicate experiments.

[2] = Liver microsome stability assay; format: in vitro ADME; settings: rat liver microsomes, 10 μM, LC/MS
Description: FIG. 4. Liver Microsome Stability Assay. Compounds (10 μM) incubated with liver microsomes for 3 h and quenched with MeCN containing internal standard, analyzed by LC/MS (280 nm). Next, the metabolic stability of the compounds was evaluated in rat liver microsomes. The compounds were evaluated for 3 hours at 10 μM, and the metabolites were observed by LC/MS.

mice = assay: Assessment of toxicity in vivo; settings: mice; scale 0 to 3, or time of death
Source text: The level of toxicity was rated on a scale of 0 (no observable adverse effect) to 3 (severe toxicity, almost fatal).

Procaspase-3 (% Activity at […]) (procaspase-3): 53 ± 4.1%
Compound: COc1ccc(CN2CCN(CC(=O)N/N=C/c3cc(C(C)(C)C)cc(C(C)(C)C)c3O)CC2)cc1 [3{2,7}]

Procaspase-3 (% Activity at […]) (procaspase-3): 64 ± 2.5%
Compound: COc1ccc(OC)c(CN2CCN(CC(=O)N/N=C/c3cc(C(C)(C)C)cc(C(C)(C)C)c3O)CC2)c1 [3{4,7}]

Procaspase-3 (% Activity at […]) (procaspase-3): 36 ± 1.6%
Compound: CC(C)(C)c1cc(/C=N/NC(=O)CN2CCN(Cc3ccc(OCc4ccccc4)cc3)CC2)c(O)c(C(C)(C)C)c1 [3{18,7}]

Procaspase-3 (% Activity at […]) (procaspase-3): 82 ± 2.4%
Compound: C=CCc1cccc(/C=N/NC(=O)CN2CCN(Cc3ccc(C(C)(C)C)cc3)CC2)c1O [3{20,24}, N′-(3-allyl-2-hydroxybenzylidene)-2-(4-(4-(tert-butyl)benzyl)piperazin-1-yl)acetohydrazide]

Procaspase-3 (% Activity at […]) (procaspase-3): 69 ± 5.3%
Compound: CC(C)(C)c1cc(/C=N/NC(=O)CN2CCN(Cc3ccc4ccccc4c3)CC2)c(O)c(C(C)(C)C)c1 [3{25,7}]

Compound: C=CCc1cccc(/C=N/NC(=O)CN2CCN(C(=O)c3ccc(F)cc3)CC2)c1O [Compound 7, N′-(3-allyl-2-hydroxybenzylidene)-2-(4-(4-fluorobenzoyl)piperazin-1-yl)acetohydrazide]
IC50 [1]: 10.2 ± 1.7 µM
RLM 3 h % Stability [2]: 86 ± 2%
Mouse Toxicity (mice): 2

Compound: CCCc1cccc(/C=N/NC(=O)CN2CCN(Cc3ccccc3)CC2)c1O [Compound 10, 2-(4-benzylpiperazin-1-yl)-N′-(2-hydroxy-3-propylbenzylidene)acetohydrazide]
IC50 [1]: 9.6 ± 2.1 µM
RLM 3 h % Stability [2]: 30 ± 1%
Mouse Toxicity (mice): 2

Compound: CCCc1cccc(/C=N/NC(=O)CN2CCN(Cc3ccc(F)cc3)CC2)c1O [Compound 15, 2-(4-(4-fluorobenzyl)piperazin-1-yl)-N′-(2-hydroxy-3-propylbenzylidene)acetohydrazide]
IC50 [1]: 10 ± 1.7 µM
RLM 3 h % Stability [2]: 24 ± 2%
Mouse Toxicity (mice): death <24 h (the mice died either within 24 hours of treatment)

Compound: O=C(CN1CCN(Cc2ccccc2)CC1)N/N=C/c1cc(F)ccc1O [Compound 19, 2-(4-benzylpiperazin-1-yl)-N′-(5-fluoro-2-hydroxybenzylidene)acetohydrazide]
IC50 [1]: 17 ± 1.4 µM
RLM 3 h % Stability [2]: 64 ± 4%
Mouse Toxicity (mice): 3

Compound: NS(=O)(=O)c1ccc(CN2CCN(CC(=O)N/N=C/c3cc(F)ccc3O)CC2)cc1 [Compound 20, 4-((4-(2-(2-(5-fluoro-2-hydroxybenzylidene)hydrazinyl)-2-oxoethyl)piperazin-1-yl)methyl)benzenesulfonamide]
IC50 [1]: 19.6 ± 3.8 µM
RLM 3 h % Stability [2]: 85 ± 6%
Mouse Toxicity (mice): death >72 h (greater than 72 hours post-treatment)

Compound: N#Cc1ccc(CN2CCN(CC(=O)N/N=C/c3cc(F)ccc3O)CC2)cc1 [Compound 22, 2-(4-(4-cyanobenzyl)piperazin-1-yl)-N′-(5-fluoro-2-hydroxybenzylidene)acetohydrazide]
IC50 [1]: 13.5 ± 1 µM
RLM 3 h % Stability [2]: 79 ± 4%
Mouse Toxicity (mice): death <24 h (the mice died either within 24 hours of treatment)

Compound: O=C(CN1CCN(Cc2ccc(F)cc2)CC1)N/N=C/c1cc(F)ccc1O [Compound 24, N′-(5-fluoro-2-hydroxybenzylidene)-2-(4-(4-fluorobenzyl)piperazin-1-yl)acetohydrazide]
IC50 [1]: 11.7 ± 1.4 µM
RLM 3 h % Stability [2]: 62 ± 2%
Mouse Toxicity (mice): 3

Compound: O=C(CN1CCN(Cc2ccc(C(F)(F)F)cc2)CC1)N/N=C/c1cc(F)ccc1O [Compound 26, N′-(5-fluoro-2-hydroxybenzylidene)-2-(4-(4-(trifluoromethyl)benzyl)piperazin-1-yl)acetohydrazide]
IC50 [1]: 4.7 ± 0.3 µM
RLM 3 h % Stability [2]: 30 ± 5%
Mouse Toxicity (mice): 3

Compound: O=C(CN1CCN(C(=O)c2ccc(C(F)(F)F)cc2)CC1)N/N=C/c1cc(F)ccc1O [Compound 27, N′-(5-fluoro-2-hydroxybenzylidene)-2-(4-(4-(trifluoromethyl)benzoyl)piperazin-1-yl)acetohydrazide]
IC50 [1]: 8.7 ± 0.5 µM
RLM 3 h % Stability [2]: 87 ± 3%
Mouse Toxicity (mice): 2

Compound: C=CCc1cc(F)cc(/C=N/NC(=O)CN2CCN(Cc3ccccc3)CC2)c1O [Compound 28, N′-(3-allyl-5-fluoro-2-hydroxybenzylidene)-2-(4-benzylpiperazin-1-yl)acetohydrazide]
IC50 [1]: 9.5 ± 0.9 µM
RLM 3 h % Stability [2]: 56 ± 1%
Mouse Toxicity (mice): death <24 h (the mice died either within 24 hours of treatment)

Compound: C=CCc1cc(F)cc(/C=N/NC(=O)CN2CCN(C(=O)c3ccccc3)CC2)c1O [Compound 30, N′-(3-allyl-5-fluoro-2-hydroxybenzylidene)-2-(4-benzoylpiperazin-1-yl)acetohydrazide]
IC50 [1]: 8.6 ± 2 µM
RLM 3 h % Stability [2]: 93 ± 7%
Mouse Toxicity (mice): 2

Compound: C=CCc1cc(F)cc(/C=N/NC(=O)CN2CCN(C(=O)c3ccc(F)cc3)CC2)c1O [Compound 34, N′-(3-allyl-5-fluoro-2-hydroxybenzylidene)-2-(4-(4-fluorobenzoyl)piperazin-1-yl)acetohydrazide]
IC50 [1]: 8.5 ± 1.4 µM
RLM 3 h % Stability [2]: 92 ± 3%
Mouse Toxicity (mice): 3

Compound: CCCc1cc(F)cc(/C=N/NC(=O)CN2CCN(Cc3ccccc3)CC2)c1O [Compound 37, 2-(4-benzylpiperazin-1-yl)-N′-(5-fluoro-2-hydroxy-3-propylbenzylidene)acetohydrazide]
IC50 [1]: 8.9 ± 1.2 µM
RLM 3 h % Stability [2]: 49 ± 6%
Mouse Toxicity (mice): death <24 h (the mice died either within 24 hours of treatment)

Compound: CCCc1cc(F)cc(/C=N/NC(=O)CN2CCN(C(=O)c3ccccc3)CC2)c1O [Compound 39, 2-(4-benzoylpiperazin-1-yl)-N′-(5-fluoro-2-hydroxy-3-propylbenzylidene)acetohydrazide]
IC50 [1]: 12.3 ± 1 µM
RLM 3 h % Stability [2]: 86 ± 5%
Mouse Toxicity (mice): 2

Compound: CCCc1cc(F)cc(/C=N/NC(=O)CN2CCN(C(=O)c3ccc(F)cc3)CC2)c1O [Compound 43, N′-(5-fluoro-2-hydroxy-3-propylbenzylidene)-2-(4-(4-fluorobenzoyl)piperazin-1-yl)acetohydrazide]
IC50 [1]: 7.5 ± 1.4 µM
RLM 3 h % Stability [2]: 67 ± 3%
Mouse Toxicity (mice): 3
